Here are results for three compounds from patent US11103512B2, “Crystalline form of (S)-[2-chloro-4-fluoro-5-(7-morpholin-4-yl-quinazolin-4-yl)phenyl]-(6-methoxy-pyridazin-3-yl)-methanol” (Merck Patent GmbH, priority 2017, dated 2021).

≈ marks a conversion by molar mass, not a printed value. Bounds are passed on as bounds.

Data set [1] relates to DNA-PK autophosphorylation in cancer cell lines. The conditions noted are these: background statement, no values; cited from earlier work.
The target of data set [2] is DNA-dependent protein kinase (DNA-PK) (Homo sapiens, UniProt P78527). The conditions noted are these: background statement, no values; cited from earlier work.
Data set [3] can be described thus: Solubility measurements in biorelevant media (24 h shake, HPLC). Type of data set: physicochemical.
A short description of data set [4]: Water vapour sorption isotherm (DVS, 25° C.). Particulars: for water uptake / hygroscopic behaviour (in words): water vapour sorption isotherm, FIG. 3. Type of data set: physicochemical. The source says:
Form I can therefore be classified acc. to Ph. Eur. Criteria (section 5.11.) as not hygroscopic. The max. water uptake level (Δmmax at 98% rh) of Form I is <1% m/m. […] This non-hygroscpopic behaviour of Form I is advantageous both in case of using the material as a starting material, as it readily lends itself to storage, as well as using it “as is” in a pharmaceutical dosage form.
• Powder X-ray diffractions (XRPD) were obtained by standard techniques as described in the European Pharmacopeia 7th Edition chapter 2.9.33 (Cu-Kai radiation, λ=1.5406 Å, Stoe StadiP 611 KL transmission diffractometer, ambient temperature); and in particular • For the amorphous form: The XRPD measurement was performed in transmission geometry with Cu-Kα1 radiation on a Stoe StadiP 611 diffractometer equipped with Mythen1K Si-strip detector (PSD). Approximately 5-20 mg of the sample were prepared on a combinatorial 96-well-plate sample holder comprising a mostly amorphous Kapton® foil on the bottom of the wells. Measurement was carried out by setting following parameters: • angular range: −36°−36 °2θ folded to 0-36 °2θ • angular resolution: 0.03 °2θ • PSD step with: 4 °2θ • measurement time: 30 s/PSD-step • generator settings: 40 mA, 40 kV • For the crystalline Form I: The measurement was performed in transmission geometry with Cu-Kα1 radiation on a Stoe StadiP 611 diffractometer equipped with Mythen1K Si-strip detector (PSD). Approximately 10-100 mg of the sample were prepared between amorphous films. Measurement was carried out by setting following parameters: • angular range: 1°-41 °2θ • angular resolution: 0.015 °2θ • PSD step with: 0.49 °2θ • measurement time: 15 s/PSD-step • generator settings: 40 mA, 40 kV • DSC: • For the amorphous form: • Temperature modulated DSC (TOPEM®) was acquired on a Mettler-Toledo heat-flux Differential Scanning Calorimeter DSC 1 system. Approximately 0.5 mg sample amount were weighed accurately in a 40 μl Aluminium pan which was hermetically closed by a lid. The scan was carried out from 0° C. to 250° C. with a linear heating rate of 2 K/min, overlapped by a non-linear puls-modulated temperature programme with a pulse height of ±0.5 K and a stochastic pulse width from 15 s (min) to 45 s (max). Nitrogen purge gas at 50 mL/min was used. • For crystalline Form I: • DSC measurement was acquired on Mettler-Toledo heat-flux Differential Scanning Calorimeter system DSC 821e. Approximately 1-5 mg sample amount were weighed accurately in a 40 μl Aluminium pan with pierced lid. The scan was carried out from 25° C. to 350° C. with a linear heating rate of 5 K/min and a nitrogen purge gas at 50 mL/min. • TGA: • Sample was investigated on a Mettler-Toledo Thermogravimetric Analyser TGA 851 with autosampler, using a nitrogen inert gas atmosphere (flow 50 mL/min). Approximately 5-20 mg sample amount were weighed accurately in a 100 μl Aluminium pan and hermetically closed by Aluminium lids. Just before insertion to the oven the lid was pierced by a needle of the autosampler system. Scans were carried out from 25° C. to 350° C. at 5 K/min. The result was baseline-corrected with a blank run from an empty 100 μl Aluminium pan of the same type, using the identical temperature profile. • Water Vapour Sorption Isotherm: • Approximately 1-40 mg sample amount were weighed accurately into a 100 μl Al pan and hung into the sample position of the DVS instrument with microbalance and incubator (DVS-Intrinsic; Surface Measurement Systems, SMS). […]

Data set [5] can be described thus: Thermal behaviour by DSC and TGA. Type of data set: physicochemical. The conditions noted are these: DSC and TGA profiles. The procedure:
By contrast, the amorphous material decomposes at 170° C. (FIG. 2). The crystalline material therefore lends itself to further processing that involves high temperatures, such as hot melt extrusion and melt granulation.
• Powder X-ray diffractions (XRPD) were obtained by standard techniques as described in the European Pharmacopeia 7th Edition chapter 2.9.33 (Cu-Kai radiation, λ=1.5406 Å, Stoe StadiP 611 KL transmission diffractometer, ambient temperature); and in particular • For the amorphous form: The XRPD measurement was performed in transmission geometry with Cu-Kα1 radiation on a Stoe StadiP 611 diffractometer equipped with Mythen1K Si-strip detector (PSD). Approximately 5-20 mg of the sample were prepared on a combinatorial 96-well-plate sample holder comprising a mostly amorphous Kapton® foil on the bottom of the wells. Measurement was carried out by setting following parameters: • angular range: −36°−36 °2θ folded to 0-36 °2θ • angular resolution: 0.03 °2θ • PSD step with: 4 °2θ • measurement time: 30 s/PSD-step • generator settings: 40 mA, 40 kV • For the crystalline Form I: The measurement was performed in transmission geometry with Cu-Kα1 radiation on a Stoe StadiP 611 diffractometer equipped with Mythen1K Si-strip detector (PSD). Approximately 10-100 mg of the sample were prepared between amorphous films. […]

As to `COc1ccc([C@@H](O)c2cc(-c3ncnc4cc(N5CCOCC5)ccc34)c(F)cc2Cl)nn1` [(S)-[2-chloro-4-fluoro-5-(7-morpholin-4-yl-quinazolin-4-yl)phenyl]-(6-methoxy-pyridazin-3-yl)-methanol], the “inhibition of DNA-PK autophosphorylation (in words)” value in data set [1] was “potent inhibition”. Besides, in data set [2], the “inhibition of DNA-PK activity (in words)” value was “potent and selective inhibitor”.

On to `COc1ccc([C@@H](O)c2cc(-c3ncnc4cc(N5CCOCC5)ccc34)c(F)cc2Cl)nn1` [Form I, (S)-[2-chloro-4-fluoro-5-(7-morpholin-4-yl-quinazolin-4-yl)phenyl]-(6-methoxy-pyridazin-3-yl)-methanol], for which the solubility at 24 h is 3 µg/mL (≈ 6.23 µM) in data set [3] (FaSSIF (fasted state simulated intestinal fluid), pH 6.5, thermodynamic from solid, FaSSIF, pH of medium 6.5, 37 °C); 17 ± 1 µg/mL (≈ 35.3 µM) in data set [3] (FeSSIF (fed state simulated intestinal fluid), pH 5, thermodynamic from solid, FeSSIF, pH of medium 5.0, 37 °C); 891 ± 33 µg/mL (≈ 1850 µM) in data set [3] (SGF (simulated gastric fluid without pepsin), pH 1.2, simulated gastric fluid, thermodynamic from solid, SGF, pH of medium 1.2, 37 °C). Further, the “max. water uptake level (Δmmax at 98% rh)” value in data set [4] (98% rh, 25° C.) is less than 1 % m/m. Also, the “hygroscopicity classification acc. to Ph. Eur. criteria (section 5.11.)” value in data set [4] (dm (80% rh−40% rh), 25° C.) is reported as “not hygroscopic (dm (80% rh−40% rh)<0.2 wt %: not hygroscopic)”. Also, the water uptake levels in data set [4] (relative humidity range 40-80% rh, 25° C.) was less than 1 % m/m. Also, the “melting/decomposition temperature (thermal stability)” value in data set [5] is “above 200 °C”.

Take `COc1ccc([C@@H](O)c2cc(-c3ncnc4cc(N5CCOCC5)ccc34)c(F)cc2Cl)nn1` [amorphous material, (S)-[2-chloro-4-fluoro-5-(7-morpholin-4-yl-quinazolin-4-yl)phenyl]-(6-methoxy-pyridazin-3-yl)-methanol]: the “water uptake / hygroscopic behaviour (in words)” value in data set [4] was “significant water uptake”; in data set [4] (listed as amorphous solid form), “hygroscopic”. In data set [5], the “melting/decomposition temperature (thermal stability)” value was determined as 170 °C.

For orientation: solubility means the dissolved amount per volume that the medium holds. A low value points to a poorly soluble substance.
